Laboratory results reported in BindingDB's records for doi:10.1016/j.bmc.2016.11.016 (University of Kaiserslautern, 2017).

Biological target: T1, Signal transducer and activator of transcription 1-alpha/beta (Homo sapiens, UniProt P42224)
T1 sequence (P42224 whole entry): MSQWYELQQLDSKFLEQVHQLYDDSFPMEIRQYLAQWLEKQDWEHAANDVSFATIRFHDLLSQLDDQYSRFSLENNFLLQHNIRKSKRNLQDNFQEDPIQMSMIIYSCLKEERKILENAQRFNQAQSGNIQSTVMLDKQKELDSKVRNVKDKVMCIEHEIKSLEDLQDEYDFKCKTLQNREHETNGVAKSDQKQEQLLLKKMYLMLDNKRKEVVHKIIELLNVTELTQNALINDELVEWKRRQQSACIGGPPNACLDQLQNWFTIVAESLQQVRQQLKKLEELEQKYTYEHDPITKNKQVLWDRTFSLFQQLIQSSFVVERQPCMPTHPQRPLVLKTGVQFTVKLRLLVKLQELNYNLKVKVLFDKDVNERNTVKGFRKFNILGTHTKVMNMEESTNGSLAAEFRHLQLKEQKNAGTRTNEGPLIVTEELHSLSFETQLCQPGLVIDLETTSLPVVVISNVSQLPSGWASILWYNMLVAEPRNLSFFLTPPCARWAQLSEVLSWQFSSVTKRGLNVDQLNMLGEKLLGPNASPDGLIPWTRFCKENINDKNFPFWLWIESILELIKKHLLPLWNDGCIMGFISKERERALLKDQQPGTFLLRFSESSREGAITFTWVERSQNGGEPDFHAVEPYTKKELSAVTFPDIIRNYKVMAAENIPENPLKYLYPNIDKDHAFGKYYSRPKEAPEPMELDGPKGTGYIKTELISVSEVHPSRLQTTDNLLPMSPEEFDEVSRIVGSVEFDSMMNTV
Test: Inhibition of Stat1 (unknown origin) expressed in LPS/INF-gamma-stimulated human MONO-MAC-6 cells assessed as reduction in GAS dependent transcription activity measured after 4 hrs by luciferase reporter gene assay

IC50 | SMILES
2 µM | CC(C)[C@H]1CC[C@]23C[C@@H]4[C@H](C)C(=O)[C@H]5O[C@]54[C@@]2(C)CC(=O)[C@]13C
> 50 µM | C=C[C@H]1CC[C@]23C[C@@H]4[C@H](C)[C@@H](O)[C@H]5O[C@@]45[C@@]2(C)CC(=O)[C@]13C
2 µM | C=C[C@H]1CC[C@]23C[C@@H]4[C@H](C)C(=O)[C@H]5O[C@]54[C@@]2(C)C[C@H](O)[C@]13C
7 µM | CC(C)[C@H]1CC[C@]23C[C@@H]4[C@H](C)C(=O)[C@H]5O[C@]54[C@@]2(C)[C@@H](O)C(=O)[C@]13C
